Columns and labels:
CD16 (Fcγ RIII) = experiment: Binding of SMIP bound on WIL2-S cells to soluble FcγR-MIg fusion (CD16), flow cytometry
Description: The assays were carried out as follows. […] The cells were then incubated with the desired FcγR-MIg fusion in the same diluent at a concentration of 1 μg/ml on ice for 45 minutes.
The complexes (WIL2-S cells/SMIP/FcγR-MIg) were then incubated with PE conjugated AffiniPure F(Ab′)2 Goat Anti-Mouse IgG [Jackson Immunoresearch] (a mouse Fc-specific antibody with minimal cross reactivity with human Fc) at a 1:100 dilution. The cells were analyzed by one-color flow cytometry on a FACsCalibur using CellQuest software (Becton Dickinson).
If TRU-016 supernatants from Example 2 were used in this assay instead of purified TRU-016 protein, the SMIP concentration in the supernatant was quantified by direct staining of WIL2-S cells with diluted supernatant along with a TRU-016 standard. TRU-016 was detected by staining with FITC conjugated F(Ab′)2 Goat Anti-Human (gamma) [Caltag H10101] at a 1:50 dilution.

[1] = tested on: human CD16 (low affinity polymorphism), FcγRIIIa; experiment: Simultaneous binding of TRU-016 to CD37 (Daudi cells) and CD16:MuIgGFc fusion
Description: TRU-016 produced as described in Example 8 was tested in the following assay, which simultaneously evaluates the ability of the TRU-016 binding domain to bind to a CD37 expressing target cell and the ability of the Fc portion of the TRU-016 SMIP to bind a fusion protein of human CD16 and murine IgG Fc.
The target cell utilized is the Daudi (ATCC CRL-213) cell line. Daudi cells are a human B-lymphoblastoid cell line derived from a Burkitt's lymphoma and express high levels of CD37. The custom soluble CD16:MuIgGFc fusion protein is human CD16 (low affinity polymorphism) linked to a murine IgG Fc.
The appropriate number of Daudi cells (350,000/well times the number of wells) is aliquoted and centrifuged at 250×g for 5 minutes at 15° C. The supernatant is removed. One percent cold paraformaldehyde is prepared by diluting the 4% stock from USB (USB US19943) 1:4 with FACS Buffer. FACS Buffer is prepared by adding 2% FBS (Gibco) to Dulbecco's PBS (Invitrogen) (v/v) and sterile filtering with a 0.22 μm filter. FACS Buffer is stored and used at 4° C. […]
Each sample's bound fluorescence is measured on a BD FACSCalibur flow cytometry system and analyzed with Cell Quest Pro software (Becton Dickinson, ver 5.2). The GeoMean fluorescence intensity for each sample is plotted relative to the TRU-016 concentration. […]

For `O[C@H]1[C@H](O)[C@@H](O)CN2CC[C@H](O)[C@H]12` [castanospermine], the “CD16 binding of Protein A-purified TRU-016 (mean fluorescence intensity)” value (CD16 (Fcγ RIII); CHO cells cultured with 0, 10, 25, 50, 100 or 200 μM castanospermine) was “dose-dependent increase”, the “CD16 binding of TRU-015 purified protein (geometric mean fluorescence intensity)” value (CD16 (Fcγ RIII); low affinity allele, CHO cells cultured with 0, 2, 5, 10, 30 or 100 μg/mL castanospermine) was “dose-dependent increase” and the “maximal improvement in TRU-016 glycovariant binding to CD16” value ([1]; CHO-K1 produced, CS concentrations of 100 μM or greater) was “approximately 7 fold”. The “binding to CD16 (GeoMean fluorescence, D-parameter) of DG44 CHO produced TRU-016” value ([1]; relative to concentration of CS up to 400 μM, then levels off) was “dose-dependent binding response”.

Source: patent US7846434B2, “Materials and methods for improved immunoglycoproteins” (Trubion Pharmaceuticals, Inc., priority 2006, dated 2010)
